Reference: ChEMBL document CHEMBL2203035, “Synthesis and docking studies of novel antitumor benzimidazoles” (Bioorg Med Chem, 2012)

Experiments:
MCF7 [1] = assay: cells; conditions: Homo sapiens, MCF7, 48 h
Description: Cytotoxicity against human MCF7 cells after 48 hrs by sulforhodamine B assay

A549 [2] = assay: Cytotoxicity against human A549 cells after 72 hrs by alamar blue assay; assay type: functional, cell-based; conditions: A549, 72 h
[3] = biological target: Urokinase plasminogen activator surface receptor (Homo sapiens, UniProt Q03405); assay: Binding affinity to uPAR
Raji [4] = assay: Inhibition of tumor promotion in human Raji cells assessed as TPA-induced Epstein-Barr virus early antigen activation at 10 mol ratio/TPA after 48 hrs by indirect immunofluorescence analysis relative to TPA alone; assay type: functional; set-up: scale not given: the % may be the effect or the level left
Raji [5] = assay: Inhibition of tumor promotion in human Raji cells assessed as TPA-induced Epstein-Barr virus early antigen activation at 500 mol ratio/TPA after 48 hrs by indirect immunofluorescence analysis relative to TPA alone; assay type: functional; set-up: scale not given: the % may be the effect or the level left
Raji [6] = assay: Inhibition of tumor promotion in human Raji cells assessed as TPA-induced Epstein-Barr virus early antigen activation at 1000 mol ratio/TPA after 48 hrs by indirect immunofluorescence analysis relative to TPA alone; assay type: functional; set-up: scale not given: the % may be the effect or the level left
Raji [7] = assay: Inhibition of tumor promotion in human Raji cells assessed as TPA-induced Epstein-Barr virus early antigen activation at 100 mol ratio/TPA after 48 hrs by indirect immunofluorescence analysis relative to TPA alone; assay type: functional; set-up: scale not given: the % may be the effect or the level left
A549 [8] = assay: Downregulation of uPA protein expression in human A549 cell extract at 1.10 uM after 48 hrs by ELISA; assay type: functional
A549 [9] = assay: Downregulation of uPA protein expression in human A549 cell extract at 0.55 uM after 48 hrs by ELISA; assay type: functional
MCF7 [10] = assay: Downregulation of uPA protein expression in human MCF7 cell extract at 0.35 uM after 48 hrs by ELISA (reference value: 1 1.4000 +/- 1.40 ng/ml); assay type: functional
A549 [11] = assay: Downregulation of uPA protein expression in human A549 cell extract at 0.275 uM after 48 hrs by ELISA (reference value: 11.0000 +/-1.60 ng/ml); assay type: functional
A549 [12] = assay: Downregulation of uPA protein expression in human A549 cell extract at 0.137 uM after 48 hrs by ELISA (reference value: 11.0000 +/-1.60 ng/ml); assay type: functional
A549 [13] = assay: Downregulation of uPA protein expression in human A549 cell extract at 0.275 uM after 48 hrs by ELISA; assay type: functional
A549 [14] = assay: Downregulation of uPA protein expression in human A549 cell extract at 0.55 uM after 48 hrs by ELISA (reference value: 11.0000 +/-1.60 ng/ml); assay type: functional
MCF7 [15] = assay: Downregulation of uPA protein expression in human MCF7 cell extract at 0.70 ug/well after 48 hrs by ELISA (reference value: 1 1.4000 +/- 1.40 ng/ml)
A549 [16] = assay: Downregulation of uPA protein expression in human A549 cell extract at 1.10 uM after 48 hrs by ELISA (reference value: 11.0000 +/-1.60 ng/ml); assay type: functional
A549 [17] = assay: Downregulation of uPA protein expression in human A549 cell extract at 0.137 uM after 48 hrs by ELISA; assay type: functional
MCF7 [18] = assay: Downregulation of uPA protein expression in human MCF7 cell extract at 0.175 uM after 48 hrs by ELISA (reference value: 1 1.4000 +/- 1.40 ng/ml); assay type: functional
MCF7 [19] = assay: Downregulation of uPA protein expression in human MCF7 cell extract at 0.087 uM after 48 hrs by ELISA (reference value: 1 1.4000 +/- 1.40 ng/ml); assay type: functional
MCF7 [20] = assay: Downregulation of uPA protein expression in human MCF7 cell extract at 0.075 uM after 48 hrs by ELISA (reference value: 1 1.4000 +/- 1.40 ng/ml); assay type: functional
MCF7 [21] = assay: Downregulation of uPA protein expression in human MCF7 cell extract at 0.15 uM after 48 hrs by ELISA (reference value: 1 1.4000 +/- 1.40 ng/ml); assay type: functional
MCF7 [22] = assay: Downregulation of uPA protein expression in human MCF7 cell extract at 0.30 uM after 48 hrs by ELISA (reference value: 1 1.4000 +/- 1.40 ng/ml); assay type: functional
MCF7 [23] = assay: Downregulation of uPA protein expression in human MCF7 cell extract at 0.60 uM after 48 hrs by ELISA (reference value: 1 1.4000 +/- 1.40 ng/ml); assay type: functional
A549 [24] = assay: Downregulation of uPA protein expression in human A549 cell extract at 0.10 uM after 48 hrs by ELISA (reference value: 11.0000 +/-1.60 ng/ml); assay type: functional
A549 [25] = assay: Downregulation of uPA protein expression in human A549 cell extract at 0.40 uM after 48 hrs by ELISA (reference value: 11.0000 +/-1.60 ng/ml); assay type: functional
A549 [26] = assay: Downregulation of uPA protein expression in human A549 cell extract at 0.05 uM after 48 hrs by ELISA (reference value: 11.0000 +/-1.60 ng/ml); assay type: functional
A549 [27] = assay: Downregulation of uPA protein expression in human A549 cell extract at 0.20 uM after 48 hrs by ELISA (reference value: 11.0000 +/-1.60 ng/ml); assay type: functional

Sequence of Urokinase plasminogen activator surface receptor (Q03405 whole entry): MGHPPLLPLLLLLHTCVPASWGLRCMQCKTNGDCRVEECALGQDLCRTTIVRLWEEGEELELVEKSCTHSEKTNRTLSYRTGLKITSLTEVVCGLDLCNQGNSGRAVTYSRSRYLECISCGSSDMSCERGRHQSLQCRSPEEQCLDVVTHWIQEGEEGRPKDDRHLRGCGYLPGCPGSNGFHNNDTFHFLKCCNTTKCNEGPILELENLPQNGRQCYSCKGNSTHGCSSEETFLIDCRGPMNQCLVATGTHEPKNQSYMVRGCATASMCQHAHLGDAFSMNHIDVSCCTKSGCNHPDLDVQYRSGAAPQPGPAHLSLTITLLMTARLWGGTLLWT

| Structure (SMILES) | IC50 (MCF7 [1]) [µg/well] | IC50 (A549 [2]) [nM] | Ki [3] [nM] | Activity (Raji [4]) [%] | Activity (Raji [5]) [%] | Activity (Raji [6]) [%] | Activity (Raji [7]) [%] | also measured |
| --- | --- | --- | --- | --- | --- | --- | --- | --- |
| CC/C(=C(\c1ccccc1)c1ccc(OCCN(C)C)cc1)c1ccccc1 [TAMOXIFEN] | 1.82 |  |  |  |  |  |  |  |
| N#Cc1cc(-c2ccccc2)n(-c2ccc(Cl)cc2)c1N |  | 7700 | 0.00329 |  |  |  |  |  |
| Nc1c(-c2nc3ccccc3[nH]2)cc(-c2ccccc2)n1-c1ccccn1 | 0.934 | 8000 | 0.00653 | 100 | 47.3 | 15.9 | 79.1 |  |
| CC1(C)CC[C@]2(C(=O)O)CC[C@]3(C)C(=CC[C@@H]4[C@@]5(C)CC[C@H](O)C(C)(C)[C@@H]5CC[C@]43C)[C@@H]2C1 [OLEANOLIC_ACID] |  |  |  | 100 | 30 | 12.7 | 80 |  |
| O=C1NC2=Nc3ccccc3N(Cc3nc4ccccc4[nH]3)C2=Nc2ccccc21 | 1.66 | 8500 | 0.00636 | 100 | 53.1 | 20.5 | 85.6 |  |
| N#Cc1cc(-c2ccccc2)n(-c2cccc(Cl)c2)c1N |  | 8000 | 0.00227 |  |  |  |  |  |
| Nc1c(-c2nc3ccccc3[nH]2)cc(-c2ccccc2)n1-c1ccncc1 | 0.705 | 1100 | 0.001 | 100 | 46.9 | 15.3 | 78.6 | Activity (A549 [8]): 75%; Activity (A549 [9]): 56%; Activity (MCF7 [10]): 9 ng/mL; Activity (A549 [11]): 5.2 ng/mL; Activity (A549 [12]): 6.2 ng/mL; Activity (A549 [13]): 53%; Activity (A549 [14]): 4.8 ng/mL; Activity (MCF7 [15]): 9.4 ng/mL; Activity (A549 [16]): 2.7 ng/mL; Activity (A549 [17]): 44%; Activity (MCF7 [18]): 8.7 ng/mL; Activity (MCF7 [19]): 9.8 ng/mL |
| Nc1c(-c2nc3ccccc3[nH]2)cc(-c2ccccc2)n1-c1ccc(Cl)cc1 | 0.934 | 9900 | 0.00445 | 100 | 50.3 | 20.1 | 85.6 |  |
| N#CC(C#N)CC(=O)c1ccccc1 |  | 9700 | 0.296 |  |  |  |  |  |
| N#Cc1cc(-c2ccccc2)n(-c2ccncc2)c1N |  | 10700 | 0.00759 |  |  |  |  |  |
| COc1cccc2c1C(=O)c1c(O)c3c(c(O)c1C2=O)C[C@@](O)(C(=O)CO)C[C@@H]3O[C@H]1C[C@H](N)[C@H](O)[C@H](C)O1 [DOXORUBICIN] |  |  |  |  |  |  |  | Activity (MCF7 [20]): 3.4 ng/mL; Activity (MCF7 [21]): 3.2 ng/mL; Activity (MCF7 [22]): 3 ng/mL; Activity (MCF7 [23]): 2.75 ng/mL |
| CCOC(=O)Cn1c(CN2C3=Nc4ccccc4C(=O)NC3=Nc3ccccc32)nc2ccccc21 | 0.934 | 8400 | 0.0017 | 100 | 43.7 | 10.3 | 74.4 |  |
| Nc1c(-c2nc3ccccc3[nH]2)cc(-c2ccccc2)n1-c1cccc(Cl)c1 | 1.7 | 7000 | 0.0044 | 100 | 48.3 | 17.8 | 80.1 |  |
| N#Cc1cc(-c2ccccc2)n(-c2ccccn2)c1N |  | 32000 | 0.0333 |  |  |  |  |  |
| Nc1c(-c2nc3ccccc3[nH]2)cc(-c2ccccc2)n1-c1nc2ccccc2[nH]1 | 1.62 | 7700 | 0.00153 | 100 | 48.2 | 16.3 | 80 |  |
| Nc1nc2ccccc2[nH]c1=O |  | 9100 | 20.8 | 100 | 46.3 | 12.6 | 78.1 |  |
| O=C1NC2=Nc3ccccc3NC2=Nc2ccccc21 | 1.39 | 13200 | 1.33 | 100 | 54.6 | 22.6 | 86.3 |  |
| N#Cc1cc(-c2ccccc2)n(-c2nc3ccccc3[nH]2)c1N | 1.28 | 12100 | 0.00302 | 100 | 49.6 | 19.7 | 83.5 |  |
| CO[C@@]12[C@H](COC(N)=O)C3=C(C(=O)C(C)=C(N)C3=O)N1C[C@@H]1N[C@@H]12 [MITOMYCIN] |  |  |  |  |  |  |  | Activity (A549 [24]): 3.3 ng/mL; Activity (A549 [25]): 2.4 ng/mL; Activity (A549 [26]): 4.3 ng/mL; Activity (A549 [27]): 2.6 ng/mL |
| N#Cc1cc(-c2ccccc2)n(-c2cccc(Br)c2)c1N |  | 13000 | 0.00411 |  |  |  |  |  |
| Nc1c(-c2nc3ccccc3[nH]2)cc(-c2ccccc2)n1Cc1nc2ccccc2[nH]1 | 0.972 | 5100 | 0.00217 | 100 | 48.3 | 18.7 | 82.6 |  |
| Nc1c(-c2nc3ccccc3[nH]2)cc(-c2ccccc2)n1-c1cccc(Br)c1 | 2.12 | 13500 | 0.012 | 100 | 49.9 | 19.2 | 84 |  |
| Nc1c(-c2nc3ccccc3[nH]2)cc(-c2ccccc2)n1-c1ccc(Br)cc1 | 0.82 | 12000 | 0.011 | 100 | 48 | 18.9 | 83.2 |  |
| N#Cc1cc(-c2ccccc2)n(-c2ccc(Br)cc2)c1N |  | 4600 | 0.00327 |  |  |  |  |  |
